Literature values, collected in article PMC7451048 (Drug metabolism letters, 2019).

Assays:
[1] = co-administration of clopidogrel and ticlopidine; ref [25]; cited from earlier work
BCRP = molecular target: T1, BCRP (Homo sapiens, UniProt Q9UNQ0); details: read-out: Km for BCRP; membrane vesicles isolated from human placenta; ref [61]; cited from earlier work
T1 sequence (Q9UNQ0 1-655): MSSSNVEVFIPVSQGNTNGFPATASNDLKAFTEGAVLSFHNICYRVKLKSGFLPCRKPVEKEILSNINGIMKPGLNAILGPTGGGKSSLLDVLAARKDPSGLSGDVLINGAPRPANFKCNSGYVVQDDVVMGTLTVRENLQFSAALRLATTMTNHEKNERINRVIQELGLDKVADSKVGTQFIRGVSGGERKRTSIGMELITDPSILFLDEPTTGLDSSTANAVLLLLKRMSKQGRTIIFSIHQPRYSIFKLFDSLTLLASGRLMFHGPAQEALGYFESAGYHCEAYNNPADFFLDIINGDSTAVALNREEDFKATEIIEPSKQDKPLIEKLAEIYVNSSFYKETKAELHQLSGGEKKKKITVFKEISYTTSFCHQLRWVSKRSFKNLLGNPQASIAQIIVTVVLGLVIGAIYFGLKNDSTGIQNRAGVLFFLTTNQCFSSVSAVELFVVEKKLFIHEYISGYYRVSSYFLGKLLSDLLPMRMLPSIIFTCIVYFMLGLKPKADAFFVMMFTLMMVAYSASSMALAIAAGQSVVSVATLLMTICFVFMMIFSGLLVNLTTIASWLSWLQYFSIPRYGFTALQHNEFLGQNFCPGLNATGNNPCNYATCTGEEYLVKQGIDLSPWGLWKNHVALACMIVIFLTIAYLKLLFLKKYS

P-gp = P-gp (Homo sapiens, UniProt P08183); details: read-out: Km for P-gp; membrane vesicles isolated from human placenta; ref [61]; cited from earlier work
Sequence of P-gp (P08183 whole entry): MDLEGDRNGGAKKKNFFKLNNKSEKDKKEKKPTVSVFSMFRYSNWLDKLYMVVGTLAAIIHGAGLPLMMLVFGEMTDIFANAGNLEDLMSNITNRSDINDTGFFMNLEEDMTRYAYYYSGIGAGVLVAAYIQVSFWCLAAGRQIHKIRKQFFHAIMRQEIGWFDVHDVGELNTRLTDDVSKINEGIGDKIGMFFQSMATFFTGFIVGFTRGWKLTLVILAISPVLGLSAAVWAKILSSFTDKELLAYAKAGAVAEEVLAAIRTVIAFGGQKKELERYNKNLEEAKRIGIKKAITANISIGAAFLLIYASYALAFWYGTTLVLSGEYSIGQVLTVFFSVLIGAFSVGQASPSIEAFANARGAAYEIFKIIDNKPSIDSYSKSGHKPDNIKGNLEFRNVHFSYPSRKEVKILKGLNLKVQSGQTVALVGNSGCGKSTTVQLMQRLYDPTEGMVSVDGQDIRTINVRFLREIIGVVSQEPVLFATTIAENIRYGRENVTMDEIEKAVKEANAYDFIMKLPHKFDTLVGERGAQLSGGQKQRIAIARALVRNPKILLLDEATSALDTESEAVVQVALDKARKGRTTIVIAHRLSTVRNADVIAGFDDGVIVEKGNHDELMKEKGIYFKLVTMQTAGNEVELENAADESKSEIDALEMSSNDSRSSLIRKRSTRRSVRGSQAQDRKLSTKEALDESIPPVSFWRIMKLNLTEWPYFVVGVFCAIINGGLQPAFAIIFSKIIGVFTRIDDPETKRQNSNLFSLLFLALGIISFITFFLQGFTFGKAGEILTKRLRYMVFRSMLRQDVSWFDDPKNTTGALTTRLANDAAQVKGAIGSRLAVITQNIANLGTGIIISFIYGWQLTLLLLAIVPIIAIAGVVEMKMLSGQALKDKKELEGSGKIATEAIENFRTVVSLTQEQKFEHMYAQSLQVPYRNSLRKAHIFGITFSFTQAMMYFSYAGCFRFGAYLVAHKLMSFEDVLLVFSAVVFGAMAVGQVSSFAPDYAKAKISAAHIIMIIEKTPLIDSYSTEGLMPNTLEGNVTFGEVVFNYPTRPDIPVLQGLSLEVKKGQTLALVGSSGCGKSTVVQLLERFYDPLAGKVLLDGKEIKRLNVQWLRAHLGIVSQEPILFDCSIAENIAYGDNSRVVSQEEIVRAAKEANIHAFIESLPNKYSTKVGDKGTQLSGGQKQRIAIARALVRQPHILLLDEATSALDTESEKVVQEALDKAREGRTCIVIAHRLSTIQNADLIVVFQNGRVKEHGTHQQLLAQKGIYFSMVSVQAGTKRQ

For CC(NC(C)(C)C)C(=O)c1cccc(Cl)c1 (stereo not shown) [BUP, Bupropion], the Difference in half-life [1] is given as “no significant difference”, the “Increase in systemic exposure (AUC)” value [1] is given as 36–61% and the Km (BCRP) is given as 3 µM. For the same compound, the Km (P-gp) was 0.5 µM.
